Data reported in publication PMC4538536, “In Silico-Based High-Throughput Screen for Discovery of Novel Combinations for Tuberculosis Treatment” (Antimicrobial Agents and Chemotherapy, 2015).
In brackets after ≈: the same amount, converted by molar mass. Like-named read-outs stand apart in the source and are kept apart here.

What was measured:
[1] = tested on: M. tuberculosis H37Rv; experiment: MIC determination, resazurin-based microplate assay; format: cell-based, Mycobacterium tuberculosis; settings: Mycobacterium tuberculosis, single drug
[2] = tested on: M. tuberculosis H37Rv; experiment: In vitro bactericidal-effect analysis (CFU enumeration of checkerboard wells); format: cell-based, Mycobacterium tuberculosis; settings: single drug at its MIC (FIC of 1); positive = reduction in CFU
In short: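 Wells staying blue in REMA checkerboards with ΣFIC <0.7 (pairs) or <1.5 (triplets) plated on Middlebrook 7H10, 37°C for 21 to 28 days; CFU reduction computed versus untreated start-of-testing counts and versus each drug alone.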

[3] = In vivo pharmacokinetics in infected mice (plasma, LC-MS/MS); design: species or system BALB/c mice; settings: mouse; for AUC(0-t) / Cmax: po, steady state, infected mice
[4] = in vivo, 25 mg/kg; cited from earlier work
[5] = BALB/c, plasma, 25 mg/kg, Group 5 triplet EMB 100/BDQ 25/SQ109 25 mg/kg oral, read-out: AUC0-24 in Triplet
[6] = BALB/c, plasma, 25 mg/kg, Group 5 triplet EMB 100/BDQ 25/SQ109 25 mg/kg oral, read-out: Cmax in Triplet
[7] = BALB/c, plasma, 50 mg/kg, Group 2 triplet SQ109 25/BDQ 25/PA824 50 mg/kg oral, read-out: AUC0-24 in Triplet
[8] = BALB/c, plasma, 50 mg/kg, Group 2 triplet SQ109 25/BDQ 25/PA824 50 mg/kg oral, read-out: Cmax in Triplet
[9] = BALB/c, plasma, 150 mg/kg, Group 2 quartet SQ109 25/BDQ 25/PA824 50/PZA 150 mg/kg oral, read-out: AUC0-24 in Quartet
[10] = BALB/c, plasma, 150 mg/kg, Group 2 quartet SQ109 25/BDQ 25/PA824 50/PZA 150 mg/kg oral, read-out: Cmax in Quartet
[11] = BALB/c, plasma, 150 mg/kg, Group 5 quartet EMB 100/BDQ 25/SQ109 25/PZA 150 mg/kg oral, read-out: AUC0-24 in Quartet
[12] = BALB/c, plasma, 150 mg/kg, Group 5 quartet EMB 100/BDQ 25/SQ109 25/PZA 150 mg/kg oral, read-out: Cmax in Quartet

COc1nc2ccc(Br)cc2cc1[C@@H](c1ccccc1)[C@@](O)(CCN(C)C)c1cccc2ccccc12 [Bedaquiline]
MIC [1]: 0.35 µM (≈ 0.194 µg/mL) | ΔLog10 CFU/ml at the MIC [2]: 0.02 Log10 CFU/ml | AUC(0-t) [3, 5]: 22200 ± 1600 ng·h/mL | Cmax [3, 6]: 2000 ± 600 ng/mL | AUC(0-t) ([3]; BALB/c, plasma, 50 mg/kg, Group 1 triplet CFZ 20/BDQ 25/PA824 50 mg/kg oral, read-out: AUC0-24 in Triplet): 21000 ± 1700 ng·h/mL | Cmax ([3]; BALB/c, plasma, 50 mg/kg, Group 1 triplet CFZ 20/BDQ 25/PA824 50 mg/kg oral, read-out: Cmax in Triplet): 1600 ± 100 ng/mL | AUC(0-t) [3, 7]: 34900 ± 5800 ng·h/mL | Cmax [3, 8]: 3600 ± 2800 ng/mL | AUC(0-t) ([3]; BALB/c, plasma, 100 mg/kg, Group 8 triplet PA824 50/BDQ 25/EMB 100 mg/kg oral, read-out: AUC0-24 in Triplet): 43300 ± 6000 ng·h/mL | Cmax ([3]; BALB/c, plasma, 100 mg/kg, Group 8 triplet PA824 50/BDQ 25/EMB 100 mg/kg oral, read-out: Cmax in Triplet): 3100 ± 200 ng/mL | AUC(0-t) ([3]; BALB/c, plasma, 150 mg/kg, Group 1 quartet CFZ 20/BDQ 25/PA824 50/PZA 150 mg/kg oral, read-out: AUC0-24 in Quartet): 30900 ± 5200 ng·h/mL | Cmax ([3]; BALB/c, plasma, 150 mg/kg, Group 1 quartet CFZ 20/BDQ 25/PA824 50/PZA 150 mg/kg oral, read-out: Cmax in Quartet): 2600 ± 500 ng/mL | AUC(0-t) [3, 9]: 31400 ± 5400 ng·h/mL | Cmax [3, 10]: 2300 ± 500 ng/mL | AUC(0-t) [3, 11]: 21500 ± 1600 ng·h/mL | Cmax [3, 12]: 1700 ± 700 ng/mL | AUC(0-t) ([3]; BALB/c, plasma, 150 mg/kg, Group 7 quartet PA824 50/BDQ 25/MXF 400/PZA 150 mg/kg oral, read-out: AUC0-24 in Quartet): 24600 ± 2900 ng·h/mL | Cmax ([3]; BALB/c, plasma, 150 mg/kg, Group 7 quartet PA824 50/BDQ 25/MXF 400/PZA 150 mg/kg oral, read-out: Cmax in Quartet): 4500 ± 1300 ng/mL | AUC(0-t) ([3]; BALB/c, plasma, 150 mg/kg, Group 8 quartet PA824 50/BDQ 25/EMB 100/PZA 150 mg/kg oral, read-out: AUC0-24 in Quartet): 50700 ± 8900 ng·h/mL | Cmax ([3]; BALB/c, plasma, 150 mg/kg, Group 8 quartet PA824 50/BDQ 25/EMB 100/PZA 150 mg/kg oral, read-out: Cmax in Quartet): 4200 ± 1500 ng/mL | AUC(0-t) ([3]; BALB/c, plasma, 400 mg/kg, Group 7 triplet PA824 50/BDQ 25/MXF 400 mg/kg oral, read-out: AUC0-24 in Triplet): 63200 ± 16700 ng·h/mL | Cmax ([3]; BALB/c, plasma, 400 mg/kg, Group 7 triplet PA824 50/BDQ 25/MXF 400 mg/kg oral, read-out: Cmax in Triplet): 3600 ± 100 ng/mL

CC(C)=CCC/C(C)=C/CNCCNC1C2CC3CC(C2)CC1C3 (centres unmarked) [SQ109]
MIC [1]: 1.18 µM (≈ 0.39 µg/mL) | ΔLog10 CFU/ml at the MIC [2]: 1.40 Log10 CFU/ml | AUC ([3]; BALB/c, plasma, oral, SQ109 25 mg/kg, EMB 100 mg/kg, in 3- and 4-drug combinations, read-out: observed AUC in combinations): 2000 to 8900 ng·h/mL | AUC(0-t) [3, 5]: 7800 ± 4900 ng·h/mL | Cmax [3, 6]: 5500 ± 5100 ng/mL | AUC(0-t) ([3]; BALB/c, plasma, 25 mg/kg, Group 6 triplet BTZ043 37.5/THI 800/SQ109 25 mg/kg oral, read-out: AUC0-24 in Triplet): 3100 ± 300 ng·h/mL | Cmax ([3]; BALB/c, plasma, 25 mg/kg, Group 6 triplet BTZ043 37.5/THI 800/SQ109 25 mg/kg oral, read-out: Cmax in Triplet): 900 ± 500 ng/mL | AUC(0-t) [3, 7]: 8900 ± 3700 ng·h/mL | Cmax [3, 8]: 5200 ± 2700 ng/mL | AUC(0-t) ([3]; BALB/c, plasma, 130 mg/kg, Group 9 triplet EMB 100/SQ109 25/LZD 130 mg/kg oral, read-out: AUC0-24 in Triplet): 4700 ± 1400 ng·h/mL | Cmax ([3]; BALB/c, plasma, 130 mg/kg, Group 9 triplet EMB 100/SQ109 25/LZD 130 mg/kg oral, read-out: Cmax in Triplet): 900 ± 400 ng/mL | AUC(0-t) [3, 9]: 5100 ± 800 ng·h/mL | Cmax [3, 10]: 3500 ± 1400 ng/mL | AUC(0-t) ([3]; BALB/c, plasma, 150 mg/kg, Group 3 quartet BTZ043 37.5/SQ109 25/MXF 200/PZA 150 mg/kg oral, read-out: AUC0-24 in Quartet): 1800 ± 400 ng·h/mL | Cmax ([3]; BALB/c, plasma, 150 mg/kg, Group 3 quartet BTZ043 37.5/SQ109 25/MXF 200/PZA 150 mg/kg oral, read-out: Cmax in Quartet): 500 ± 200 ng/mL | AUC(0-t) [3, 11]: 4900 ± 100 ng·h/mL | Cmax [3, 12]: 2700 ± 500 ng/mL | AUC(0-t) ([3]; BALB/c, plasma, 150 mg/kg, Group 6 quartet BTZ043 37.5/THI 800/SQ109 25/PZA 150 mg/kg oral, read-out: AUC0-24 in Quartet): 4900 ± 2200 ng·h/mL | Cmax ([3]; BALB/c, plasma, 150 mg/kg, Group 6 quartet BTZ043 37.5/THI 800/SQ109 25/PZA 150 mg/kg oral, read-out: Cmax in Quartet): 3100 ± 2800 ng/mL | AUC(0-t) ([3]; BALB/c, plasma, 150 mg/kg, Group 9 quartet EMB 100/SQ109 25/LZD 130/PZA 150 mg/kg oral, read-out: AUC0-24 in Quartet): 7600 ± 3600 ng·h/mL | Cmax ([3]; BALB/c, plasma, 150 mg/kg, Group 9 quartet EMB 100/SQ109 25/LZD 130/PZA 150 mg/kg oral, read-out: Cmax in Quartet): 3500 ± 3100 ng/mL | AUC(0-t) ([3]; BALB/c, plasma, 200 mg/kg, Group 3 triplet BTZ043 37.5/SQ109 25/MXF 200 mg/kg oral, read-out: AUC0-24 in Triplet): 2100 ± 800 ng·h/mL | Cmax ([3]; BALB/c, plasma, 200 mg/kg, Group 3 triplet BTZ043 37.5/SQ109 25/MXF 200 mg/kg oral, read-out: Cmax in Triplet): 700 ± 500 ng/mL | plasma exposure in combination compared with individual (reported) exposure ([3]; in vivo): higher | reported AUC [4]: 250 ng·h/mL
